Where “and” joins values, the source holds several entries; their conditions need not be identical. Equal values may be shown once. Toxic doses and inconclusive results are not listed. Rule for the calls: active = survival T/C of 150% or more; inactive = T/C below 125% in these data.
Test system: CD2F1 mice, L1210 leukemia ip, survival T/C
Assay: NCI In Vivo Anticancer Drug Screen. Data for tumor model L1210 Leukemia (intraperitoneal) in CD2F1 (CDF1) mice
Details: higher = longer survival
Procedure, shortened: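 Each value reflects a quotient of treated over vehicle control outcomes in mice with a transplanted tumor.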

[1] = endpoint: mean survival time, dose: 100.0 mg/kg/injection, schedule: Q04DX003 (ip), vehicle: saline with Tween-80
[2] = endpoint: mean survival time, dose: 200.0 mg/kg/injection, schedule: Q04DX003 (ip), vehicle: saline with Tween-80

Measured: T/C

CCC(=O)N(C)[C@@H](C)C(=O)O[C@H]1CC(=O)N(C)c2cc(cc(OC)c2Cl)C/C(C)=C/C=C[C@@H](OC)[C@@]2(O)C[C@H](OC(=O)N2)[C@@H](C)[C@@H]2O[C@@]12C
inactive: endpoint: mean survival time, dose: 1.3 micrograms/kg/injection, schedule: Q01DX009 (ip), vehicle: saline + alcohol 110 % of control | endpoint: mean survival time, dose: 2.5 micrograms/kg/injection, schedule: Q01DX009 (ip), vehicle: saline + alcohol 119 % of control | endpoint: mean survival time, dose: 2.5 micrograms/kg/injection, schedule: Q01DX009 (ip), vehicle: saline 109 % of control | endpoint: mean survival time, dose: 3.8 micrograms/kg/injection, schedule: Q01DX009 (ip), vehicle: saline + alcohol 120 % of control | endpoint: mean survival time, dose: 5.0 micrograms/kg/injection, schedule: Q01DX009 (ip), vehicle: saline + alcohol 117 % of control and 111 % of control | endpoint: mean survival time, dose: 5.0 micrograms/kg/injection, schedule: Q01DX009 (ip), vehicle: saline 111 % of control | endpoint: mean survival time, dose: 7.5 micrograms/kg/injection, schedule: Q01DX009 (ip), vehicle: saline + alcohol 106 % of control | endpoint: mean survival time, dose: 10.0 micrograms/kg/injection, schedule: Q01DX009 (ip), vehicle: saline + alcohol 115 % of control | endpoint: mean survival time, dose: 10.0 micrograms/kg/injection, schedule: Q01DX009 (ip), vehicle: saline 111 % of control | endpoint: mean survival time, dose: 15.0 micrograms/kg/injection, schedule: Q01DX009 (ip), vehicle: saline + alcohol 112 % of control | endpoint: mean survival time, dose: 20.0 micrograms/kg/injection, schedule: Q01DX009 (ip), vehicle: saline 111 % of control | endpoint: mean survival time, dose: 30.0 micrograms/kg/injection, schedule: Q01DX009 (ip), vehicle: saline + alcohol 122 % of control | endpoint: mean survival time, dose: 30.0 micrograms/kg/injection, schedule: Q01DX009 (ip), vehicle: saline 117 % of control | endpoint: mean survival time, dose: 60.0 micrograms/kg/injection, schedule: Q01DX009 (ip), vehicle: saline + alcohol 114 % of control

COC(=O)C(=O)Cc1cc(OC)cc(=O)o1
inactive: [1] 100 % of control | [2] 101 % of control | endpoint: mean survival time, dose: 400.0 mg/kg/injection, schedule: Q04DX003 (ip), vehicle: saline with Tween-80 95 % of control

CCOC(OCC)c1nc(N)nc(N)c1-c1ccc(Cl)c(Cl)c1
inactive: endpoint: mean survival time, dose: 134.0 mg/kg/injection, schedule: Q01DX009 (ip), vehicle: other 123 % of control | endpoint: mean survival time, dose: 200.0 mg/kg/injection, schedule: Q01DX009 (ip), vehicle: other 111 % of control | endpoint: mean survival time, dose: 300.0 mg/kg/injection, schedule: Q01DX009 (ip), vehicle: other 88 % of control

Cc1ccccc1S(=O)(=O)F
inactive: endpoint: mean survival time, dose: 50.0 mg/kg/injection, schedule: Q01DX009 (ip), vehicle: saline with Tween-80 103 % of control | endpoint: mean survival time, dose: 100.0 mg/kg/injection, schedule: Q01DX009 (ip), vehicle: saline with Tween-80 107 % of control | [1] 92 % of control | [2] 89 % of control

COc1ccc(CC(N)C(=O)NC2C(CO)OC(n3cnc4c(N)ncnc43)C2O)cc1 (stereo not drawn)
inactive: endpoint: mean survival time, dose: 75.0 mg/kg/injection, schedule: Q01DX001 (ip), vehicle: saline 100 % of control | endpoint: mean survival time, dose: 150.0 mg/kg/injection, schedule: Q01DX001 (ip), vehicle: saline 95 % of control | endpoint: mean survival time, dose: 300.0 mg/kg/injection, schedule: Q01DX001 (ip), vehicle: saline 100 % of control

Clc1ccc([PH+](c2ccc(Cl)cc2)c2ccc(Cl)cc2)cc1.Clc1ccc([PH+](c2ccc(Cl)cc2)c2ccc(Cl)cc2)cc1.[Cl][Hg][Cl]
inactive: endpoint: mean survival time, dose: 12.5 mg/kg/injection, schedule: Q01DX009 (ip), vehicle: Klucel (hydroxypropylcellulose) (HPC) 96 % of control | endpoint: mean survival time, dose: 50.0 mg/kg/injection, schedule: Q01DX009 (ip), vehicle: Klucel (hydroxypropylcellulose) (HPC) 104 % of control

Cc1ccc(S(=O)(=O)OCCc2cccc3ccccc23)cc1
inactive: endpoint: mean survival time, dose: 100.0 mg/kg/injection, schedule: Q01DX001 (ip), vehicle: saline 101 % of control | endpoint: mean survival time, dose: 200.0 mg/kg/injection, schedule: Q01DX001 (ip), vehicle: saline 101 % of control | endpoint: mean survival time, dose: 400.0 mg/kg/injection, schedule: Q01DX001 (ip), vehicle: saline 98 % of control

Cc1ccc(Nc2nc(N)nc3c2ncn3C2OC(CO)C(O)C2O)cc1 (stereo not drawn)
inactive: endpoint: mean survival time, dose: 12.5 mg/kg/injection, schedule: Q01DX005 (ip), vehicle: distilled water + Tween-80 95 % of control | endpoint: mean survival time, dose: 25.0 mg/kg/injection, schedule: Q01DX005 (ip), vehicle: distilled water + Tween-80 90 % of control | endpoint: mean survival time, dose: 50.0 mg/kg/injection, schedule: Q01DX005 (ip), vehicle: distilled water + Tween-80 98 % of control | endpoint: mean survival time, dose: 100.0 mg/kg/injection, schedule: Q01DX005 (ip), vehicle: distilled water + Tween-80 108 % of control

CCOc1ccc(C(=O)OC(CN(CC)CC)c2ccccc2)cc1 (stereo not drawn)
inactive: endpoint: mean survival time, dose: 25.0 mg/kg/injection, schedule: Q04DX003 (ip), vehicle: saline 102 % of control | endpoint: mean survival time, dose: 50.0 mg/kg/injection, schedule: Q04DX003 (ip), vehicle: saline 102 % of control | endpoint: mean survival time, dose: 100.0 mg/kg/injection, schedule: Q04DX003 (ip), vehicle: saline 89 % of control

COc1ccc(C=NCCO)cc1OC
inactive: endpoint: median survival time, dose: 50.0 mg/kg/injection, schedule: Q04DX002 (ip), vehicle: saline with Tween-80 111 % of control | endpoint: median survival time, dose: 100.0 mg/kg/injection, schedule: Q04DX002 (ip), vehicle: saline with Tween-80 100 % of control | endpoint: median survival time, dose: 200.0 mg/kg/injection, schedule: Q04DX002 (ip), vehicle: saline with Tween-80 100 % of control | endpoint: median survival time, dose: 400.0 mg/kg/injection, schedule: Q04DX002 (ip), vehicle: saline with Tween-80 100 % of control

From PubChem BioAssay AID256 (DTP/NCI, 2004)
